According to PubChem BioAssay AID248 (DTP/NCI, 2004):
Several values for one entry are separate records, joined by “and”; a condition that tells them apart may be missing. Equal values may be shown once. Inconclusive results and toxic doses are left out.

Test system: L1210 leukemia ip in BDF1 mice, survival T/C
Test: NCI In Vivo Anticancer Drug Screen. Data for tumor model L1210 Leukemia (intraperitoneal) in B6D2F1 (BDF1) mice
Conditions: endpoint: mean survival time, higher = longer survival
Outline: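 In this screen, tumor-bearing mice given compound are compared to those given vehicle, and their survival values are reported as a treated-to-control quotient.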

[1] = dose: 100.0 mg/kg/injection, schedule: Q04DX003 (ip), vehicle: saline
[2] = dose: 100.0 mg/kg/injection, schedule: Q04DX003 (ip), vehicle: Klucel (hydroxypropylcellulose) (HPC)
[3] = dose: 200.0 mg/kg/injection, schedule: Q04DX003 (ip), vehicle: Klucel (hydroxypropylcellulose) (HPC)
[4] = dose: 400.0 mg/kg/injection, schedule: Q04DX003 (ip), vehicle: Klucel (hydroxypropylcellulose) (HPC)
[5] = dose: 100.0 mg/kg/injection, schedule: Q04DX003 (ip), vehicle: saline with Tween-80
[6] = dose: 200.0 mg/kg/injection, schedule: Q04DX003 (ip), vehicle: saline with Tween-80
[7] = dose: 400.0 mg/kg/injection, schedule: Q04DX003 (ip), vehicle: saline with Tween-80
[8] = dose: 100.0 mg/kg/injection, schedule: Q01DX009 (ip), vehicle: saline with Tween-80
[9] = dose: 200.0 mg/kg/injection, schedule: Q01DX009 (ip), vehicle: saline with Tween-80
[10] = dose: 400.0 mg/kg/injection, schedule: Q01DX009 (ip), vehicle: saline with Tween-80
[11] = dose: 100.0 mg/kg/injection, schedule: Q01DX009 (ip), vehicle: saline
[12] = dose: 200.0 mg/kg/injection, schedule: Q01DX009 (ip), vehicle: saline
[13] = dose: 200.0 mg/kg/injection, schedule: Q04DX003 (ip), vehicle: saline
[14] = dose: 400.0 mg/kg/injection, schedule: Q04DX003 (ip), vehicle: saline
[15] = dose: 100.0 mg/kg/injection, schedule: Q01DX001 (ip), vehicle: carboxymethylcellulose (CMC)
[16] = dose: 200.0 mg/kg/injection, schedule: Q01DX001 (ip), vehicle: carboxymethylcellulose (CMC)
[17] = dose: 100.0 mg/kg/injection, schedule: Q01DX001 (ip), vehicle: Klucel (hydroxypropylcellulose) (HPC)
[18] = dose: 200.0 mg/kg/injection, schedule: Q01DX001 (ip), vehicle: Klucel (hydroxypropylcellulose) (HPC)
[19] = dose: 400.0 mg/kg/injection, schedule: Q01DX001 (ip), vehicle: Klucel (hydroxypropylcellulose) (HPC)
[20] = dose: 25.0 mg/kg/injection, schedule: Q04DX002 (ip), vehicle: Klucel (hydroxypropylcellulose) (HPC)
[21] = dose: 50.0 mg/kg/injection, schedule: Q04DX002 (ip), vehicle: Klucel (hydroxypropylcellulose) (HPC)
[22] = dose: 100.0 mg/kg/injection, schedule: Q04DX002 (ip), vehicle: Klucel (hydroxypropylcellulose) (HPC)

For `CC(C)(C)C1([Si](C)(C)C)SCCCS1`, the T/C (dose: 100.0 mg/kg/injection, schedule: Q04DX002 (ip), vehicle: other) was 114 % of control, the T/C (dose: 200.0 mg/kg/injection, schedule: Q04DX002 (ip), vehicle: other) was 108 % of control and the T/C (dose: 400.0 mg/kg/injection, schedule: Q04DX002 (ip), vehicle: other) was 101 % of control.

In the case of `CS(=O)(=O)OCCN(CCOS(C)(=O)=O)c1ccc(C=Nc2ccc(C(=O)O)cc2)cc1`, the T/C (dose: 2.5 mg/kg/injection, schedule: Q04DX003 (ip), vehicle: Klucel (hydroxypropylcellulose) (HPC)) is reported as 114 % of control, the T/C (dose: 20.0 mg/kg/injection, schedule: Q04DX003 (ip), vehicle: Klucel (hydroxypropylcellulose) (HPC)) is reported as 170 % of control and the T/C (dose: 40.0 mg/kg/injection, schedule: Q04DX003 (ip), vehicle: Klucel (hydroxypropylcellulose) (HPC)) is reported as 112 % of control.

With `C#CCOC1CCCCO1` (centres undefined) the T/C [1] was 104 % of control.

For `Nc1nc(N)nc(-c2ccccc2NC(=O)c2ccccc2N)n1`, the T/C (dose: 100.0 mg/kg/injection, schedule: Q01DX009 (ip), vehicle: Klucel (hydroxypropylcellulose) (HPC)) was 95 % of control, the T/C [2] was 103 % of control and the T/C (dose: 200.0 mg/kg/injection, schedule: Q01DX009 (ip), vehicle: Klucel (hydroxypropylcellulose) (HPC)) was 91 % of control. The T/C [3] was 101 % of control, the T/C (dose: 400.0 mg/kg/injection, schedule: Q01DX009 (ip), vehicle: Klucel (hydroxypropylcellulose) (HPC)) was 101 % of control and the T/C [4] was 95 % of control.

`CCC(CO)Nc1nc2cc(Cl)ccc2c2ccc(Cl)cc12` (centres undefined) was tested, and the T/C [2] was 102 % of control, the T/C [3] was 100 % of control and the T/C [4] was 103 % of control.

For `C[n+]1ccccc1/C=C/c1ccc(O)c2ccccc12`, the T/C (dose: 15.0 mg/kg/injection, schedule: Q01DX001 (ip), vehicle: saline) was 97 % of control, the T/C (dose: 30.0 mg/kg/injection, schedule: Q01DX001 (ip), vehicle: saline) was 91 % of control and the T/C (dose: 60.0 mg/kg/injection, schedule: Q01DX001 (ip), vehicle: saline) was 103 % of control. The T/C (dose: 75.0 mg/kg/injection, schedule: Q01DX001 (ip), vehicle: saline) was 103 % of control.

With `O=C(NCCN1CC1)C(=O)NCCN1CC1` the T/C (dose: 1.7 mg/kg/injection, schedule: Q04DX003 (ip), vehicle: Klucel (hydroxypropylcellulose) (HPC)) was 173 % of control, the T/C (dose: 2.6 mg/kg/injection, schedule: Q04DX003 (ip), vehicle: Klucel (hydroxypropylcellulose) (HPC)) was 153 % of control and 186 % of control and the T/C (dose: 3.12 mg/kg/injection, schedule: Q04DX003 (ip), vehicle: Klucel (hydroxypropylcellulose) (HPC)) was 187 % of control. For the same molecule, the T/C (dose: 3.12 mg/kg/injection, schedule: Q04DX003 (ip), vehicle: saline with Tween-80) was 179 % of control, the T/C (dose: 4.0 mg/kg/injection, schedule: Q04DX003 (ip), vehicle: Klucel (hydroxypropylcellulose) (HPC)) was 207 % of control and the T/C (dose: 6.0 mg/kg/injection, schedule: Q04DX003 (ip), vehicle: Klucel (hydroxypropylcellulose) (HPC)) was 95 % of control. For the same molecule, the T/C (dose: 6.25 mg/kg/injection, schedule: Q04DX003 (ip), vehicle: Klucel (hydroxypropylcellulose) (HPC)) was 258 % of control and the T/C (dose: 12.5 mg/kg/injection, schedule: Q04DX003 (ip), vehicle: Klucel (hydroxypropylcellulose) (HPC)) was 122 % of control.

`O=C(O)/C=C/C(=O)Nc1ccc(F)cc1F` was tested, and the T/C [5] was 100 % of control, the T/C [6] was 100 % of control and the T/C [7] was 107 % of control.

For `Nc1cc(N)nc(C(F)(F)F)n1`, the T/C (dose: 50.0 mg/kg/injection, schedule: Q01DX Z (ip), vehicle: methylcellulose (MC)) was 102 % of control and the T/C (dose: 100.0 mg/kg/injection, schedule: Q01DX Z (ip), vehicle: methylcellulose (MC)) was 94 % of control.

In the case of `O=c1c2ccc(Cl)cc2[nH]c(=S)n1-c1ccc(Cl)cc1`, the T/C [8] is reported as 89 % of control, the T/C [9] is reported as 89 % of control and the T/C [10] is reported as 87 % of control.

With `N#Cc1ccc(OC(=O)c2ccc(N=C(N)N)cc2)cc1` the T/C [11] was 94 % of control, the T/C [1] was 96 % of control and the T/C [12] was 91 % of control. For the same molecule, the T/C [13] was 93 % of control and the T/C [14] was 88 % of control.

`Cc1cccc(NC(=S)NC(=O)c2cccc([N+](=O)[O-])c2)c1C` was tested, and the T/C [8] was 104 % of control and 118 % of control, the T/C (dose: 100.0 mg/kg/injection, schedule: Q04DX002 (ip), vehicle: saline with Tween-80) was 88 % of control and the T/C [5] was 99 % of control. For the same molecule, the T/C [9] was 103 % of control and 104 % of control, the T/C (dose: 200.0 mg/kg/injection, schedule: Q04DX002 (ip), vehicle: saline with Tween-80) was 102 % of control and the T/C [6] was 101 % of control. The T/C [10] was 104 % of control, the T/C (dose: 400.0 mg/kg/injection, schedule: Q04DX002 (ip), vehicle: saline with Tween-80) was 98 % of control and the T/C [7] was 100 % of control.

For `COc1ccccc1NC(=O)Nc1ccc(C)c(C)c1`, the T/C (dose: 100.0 mg/kg/injection, schedule: Q01DX009 (ip), vehicle: gum acacia) was 92 % of control, the T/C (dose: 100.0 mg/kg/injection, schedule: Q04DX003 (ip), vehicle: gum acacia) was 96 % of control and the T/C (dose: 200.0 mg/kg/injection, schedule: Q01DX009 (ip), vehicle: gum acacia) was 96 % of control. For the same molecule, the T/C (dose: 200.0 mg/kg/injection, schedule: Q04DX003 (ip), vehicle: gum acacia) was 98 % of control, the T/C (dose: 400.0 mg/kg/injection, schedule: Q01DX009 (ip), vehicle: gum acacia) was 90 % of control and the T/C (dose: 400.0 mg/kg/injection, schedule: Q04DX003 (ip), vehicle: gum acacia) was 90 % of control.

With `CC(=O)N(C)c1ccc(N)cc1` the T/C [11] was 104 % of control, the T/C [1] was 100 % of control and the T/C [12] was 98 % of control. The T/C [13] was 105 % of control, the T/C (dose: 400.0 mg/kg/injection, schedule: Q01DX009 (ip), vehicle: saline) was 93 % of control and the T/C [14] was 102 % of control.

With `Clc1cccc2c(Cl)nccc12` the T/C [5] was 100 % of control, the T/C [6] was 94 % of control and the T/C [7] was 96 % of control.

`O=C(N/N=C/c1ccc(Cl)cc1)c1ccc(Cl)cc1` was tested, and the T/C [5] was 105 % of control, the T/C [6] was 98 % of control and the T/C [7] was 91 % of control.

In the case of `COc1ccc(OC)c2c(=O)cc[nH]c12`, the T/C [15] is reported as 103 % of control and the T/C [16] is reported as 94 % of control.

With `C/C(=N\NC(=S)Nc1cc(Cl)ccc1Cl)c1cc([N+](=O)[O-])c(O)cc1O` the T/C [17] was 104 % of control, the T/C [18] was 101 % of control and the T/C [19] was 93 % of control.

With `O/N=C/c1cccn1-c1cccc2c(-n3cccc3/C=N/O)cccc12` the T/C [20] was 101 % of control, the T/C [21] was 93 % of control and the T/C [22] was 97 % of control.

`O=C(OCc1ccccc1CN1CCCCC1)c1ccc(Cl)cc1` was tested, and the T/C [20] was 102 % of control, the T/C [21] was 105 % of control and the T/C [22] was 107 % of control.

`CC1=C(C(=O)O)C(c2ccccc2)CC(=O)N1` (centres undefined) was tested, and the T/C (dose: 50.0 mg/kg/injection, schedule: Q01DX001 (ip), vehicle: carboxymethylcellulose (CMC)) was 96 % of control, the T/C [15] was 104 % of control and the T/C [16] was 98 % of control. The T/C (dose: 400.0 mg/kg/injection, schedule: Q01DX001 (ip), vehicle: carboxymethylcellulose (CMC)) was 98 % of control.

In the case of `O=S(=O)(c1ccc(OCC(O)COc2ccc(S(=O)(=O)c3ccc(OCC4CO4)cc3)cc2)cc1)c1ccc(OCC2CO2)cc1` (centres undefined), the T/C (dose: 100.0 mg/kg/injection, schedule: Q01DX001 (ip), vehicle: saline) is reported as 106 % of control, the T/C (dose: 200.0 mg/kg/injection, schedule: Q01DX001 (ip), vehicle: saline) is reported as 109 % of control and the T/C (dose: 400.0 mg/kg/injection, schedule: Q01DX001 (ip), vehicle: saline) is reported as 104 % of control.

For `CCOC(=O)c1cnc(N)s1`, the T/C [17] was 105 % of control, the T/C [18] was 98 % of control and the T/C [19] was 102 % of control.

For `O=S(=O)(NO)c1ccc(Cl)cc1`, the T/C (dose: 50.0 mg/kg/injection, schedule: Q01DX009 (ip), vehicle: saline sonified) was 98 % of control, the T/C (dose: 100.0 mg/kg/injection, schedule: Q01DX009 (ip), vehicle: saline sonified) was 91 % of control and the T/C [1] was 98 % of control. The T/C (dose: 200.0 mg/kg/injection, schedule: Q01DX009 (ip), vehicle: saline sonified) was 95 % of control and the T/C [13] was 94 % of control.
